The subject of assay [1] is kudzu. To be noted: thirteen applications over a five year period; cited from earlier work.
For assay [2], the system named is kudzu. The assay can be described thus: Field trial (Holcomb): kudzu regrowth, green biomass dry weight per plot. The class given is in vivo, Pueraria montana (Lour.) Merr. variety lobata (Willd.). To be noted: 6 WAT, applied mid September at maximum labeled rates, untreated control .81, Lsd .41. The source says:
Field trials: Uniform areas of land infested with kudzu were identified in Holcomb and Yazoo City, Miss. Plots were one by two meters separated by a narrow strip to prevent cross-contamination of herbicides in Holcomb. Plots were three by three meters in Yazoo City. Herbicides were applied with an hand held boom sprayer equipped with a Teejet 8002 EVS flat fan nozzles, adjusted to 207 kPa, and applied at 1.3 m/s in a single pass to deliver 61.2 L/ha to the treatment areas. Commercial formulations of herbicides were applied at their maximum labeled rates. Herbicides were applied to both sites in mid September. In Holcomb, vegetation within a 0.3 m^2 area of each test plot was harvested at 6 weeks after treatment. Green plant matter was collected and dried as an estimate of above-ground healthy biomass. Biomass of treated plots was compared to untreated plots to determine percent control. In Yazoo City, the percentage reduction in leaf cover was determined by counting the number of leaves intersected by a grid containing 100 intersections (at 10 centimeter intervals) per one meter square.
Translocation of herbicides to roots is vital to achieving control of established perennial species like kudzu having deep root systems and a high capacity for regrowth. Other weeds such as redvine, silverleaf nightshade, and yellow and purple nutsedge with deep perenniating underground structures may also be more easily controlled. Without being bound by theory, the field application occurred in September when carbon allocation in kudzu shifts to root reserve replenishment which could facilitate herbicide translocation and may account for the greater activity of the combination of trifloxysulfuron and glyphosate on suppressing regrowth.

The subject of assay [3] is kudzu. The assay can be described thus: Greenhouse trial: kudzu control by reduction of above-ground green biomass. The class given is in vivo, Pueraria montana (Lour.) Merr. variety lobata (Willd.). To be noted: 2 WAT, vs untreated plants, dry weight basis, rate (units/A) differs per treatment as in Table 1. The procedure:
(§1) Greenhouse trials: Kudzu was established from seed in flats containing a 2:3 (w:w) mixture of soil (Bosket silt clay loam, fine-silty, mixed thermic Aeric Ochraqualf) and potting media. Seedlings were transferred to 10 cm diameter pots containing the same soil mixture when they developed two true leaves. Pots were placed in the greenhouse, set at 30°±2° C., and equipped with supplemental lighting to provide a 14-h photoperiod. Pots were irrigated as needed and fertilized every three weeks with slow release Osmocote® fertilizer at 1.5 g/pot. […] Plants were selected for size uniformity from a population of approximately three times that necessary to establish a test.
(§2) Herbicides were applied with a pneumatic track sprayer with a TeeJet 8002 flat-fan nozzle delivering 187 L/ha water at 179 kPa. The rates utilized in this study were based on the allowable rates according to the label of the herbicide containers. Kudzu was evaluated for herbicide injury expressed as the percentage of above-ground green biomass remaining at 2 weeks after treatment (WAT) compared to untreated plants (control) on a dry weight basis. Treatments were arranged in a randomized complete block design with four replications and the experiment was repeated. Data were analyzed using the Proc Mixed procedure in SAS and means were separated using a Fisher's Protected least significant difference (LSD) at P=0.05.
In greenhouse studies, shoot biomass was determined at 2 WAT. […] For those skilled in the art of weed control, enhanced control resulting from glyphosate and an ALS inhibitor would not be expected. […] Those with high initial activity against kudzu may provide suitable kudzu control when mixed with glyphosate.

The subject of assay [4] is kudzu. The assay can be described thus: Glyphosate and trifloxysulfuron at reduced rates on kudzu (Example 2). The class given is in vivo, Pueraria montana (Lour.) Merr. variety lobata (Willd.). As to the method:
as §1, §2
The labeled recommended rate of glyphosate for kudzu control was 80 to 106 ounces per acre which was well above the rates tested herein. In Table 2 the rates were 8, 16 and 22 oz formulated glyphosate (WeatherMax™) per acre with trifloxysulfuron at 4.25 grams per acre. The ability to achieve control of kudzu at reduced rates of herbicide was a further indication that a unique effect was observed and allowed control using less pesticide.

Assay [5] has as its system mature kudzu vines. Kind of assay: Field: post-emergence application to mature kudzu stands (FIG. 4). The class given is in vivo, Pueraria montana (Lour.) Merr. variety lobata (Willd.). To be noted: 3 WAT, single post-emergence application, rates per Table 4. The source says:
The labeled recommended rate of glyphosate, for kudzu control was 80 to 106 ounces per acre which was well above the rates tested herein. ALS inhibitors were used at label rates. Post-emergence applications of the treatments listed in Table 4 were made to mature kudzu stands growing over a Bermuda grass turf. […] When ALS inhibitors were applied alone, less than 10% control was observed 3 WAT, whereas glyphosate alone provided less than 26% control.

Data on eight molecules can be found in patent publication US8338333B1, “Methods for controlling weeds including kudzu” (priority 2009, dated 2012).

Each structure is given as a SMILES string.

In the case of `O=C(O)COc1cc(Cl)c(Cl)cc1Cl` [2,4,5-trichlorophenoxyacetic acid], the “killing of all kudzu crowns” value in assay [1] is recorded as “not successful in killing all crowns”.

Turning to `CCNc1nc(Cl)nc(NC(C)C)n1` [atrazine], in assay [2], the “Kudzu Regrowth Gram dry wgt per plot” value was “.59 Gram dry wgt per plot”. On to `CCOc1nc(F)cc2nc(S(=O)(=O)Nc3c(Cl)cccc3C(=O)O)nn12` [chloransulam], for which the “Control (%), kudzu control based on percent reduction of above-ground green biomass” value in assay [3] turned out to be 11%.

On to `COc1cc(Cl)nc(NC(=O)NS(=O)(=O)c2ccccc2C(=O)O)n1` [chlorimuron], for which the “Control (%), kudzu control based on percent reduction of above-ground green biomass” value in assay [3] is listed as 0%. For the molecule `O=C(O)CNCP(=O)(O)O` [glyphosate], in assay [2], the “Kudzu Regrowth Gram dry wgt per plot” value is given as “.52 Gram dry wgt per plot”. For the same molecule, the “Kudzu Control (%)” value in assay [4] (glyphosate 0.35 lb./A alone) came out at 33%; in assay [4] (glyphosate 0.7 lb./A alone), 95%; in assay [4] (glyphosate 1 lb./A alone), 97%. Besides, the “control of mature kudzu” value in assay [5] was “less than 26%”. In the case of `CSc1nnc(C(C)(C)C)c(=O)n1N` [metribuzin], in assay [2], the “Kudzu Regrowth Gram dry wgt per plot” value was “.51 Gram dry wgt per plot”. With `COc1nc(C)nc(NC(=O)NS(=O)(=O)c2ccccc2C(=O)O)n1` [metsulfuron], the “Control (%), kudzu control based on percent reduction of above-ground green biomass” value in assay [3] turned out to be 87%.

In the case of `COc1cc(OC)nc(NC(=O)NS(=O)(=O)c2ncccc2OCC(F)(F)F)n1` [trifloxysulfuron], in assay [3], the “Control (%), kudzu control based on percent reduction of above-ground green biomass” value was determined as 93%. Further, the “Kudzu Control (%)” value in assay [4] (trifloxysulfuron 4.25 g/A alone) came out at 72%.
